Laboratory results as given in paper PMC7394586 (OncoTargets and therapy, 2020).

Tests used:
MHCC97-H cells [1] = assay: MTT cell survival assay; assay type: cell-based, human; conditions: for change of IC50 on MHCC97-H cells on overexpression of miR-3609: miR-3609 overexpression versus control
[2] = test system: PDC No. 1 subcutaneous tumors; assay: Tumor-based clearance of sorafenib in subcutaneous tumors; assay type: in vivo, nude mice; conditions: PDC No. 1, Tumor-based, Control; sorafenib injected into subcutaneous tumors
[3] = test system: MHCC97-H subcutaneous growth; assay: Antitumor effect in vivo, subcutaneous tumor model; parameters: species or system nude mice; conditions: for IC50 values of Soarfenib on Subcutaneous Tumor Weights: MHCC97-H, oral administration every 2 days, 10 treatments
[4] = Clinical outcome of advanced HCC patients who received sorafenib treatment; assay type: in vivo, human
[5] = test system: MHCC97-H subcutaneous tumors; assay: Tumor-based clearance of sorafenib in subcutaneous tumors; assay type: in vivo, nude mice; conditions: Control, sorafenib injected into subcutaneous tumors
[6] = test system: PDC No. 2 subcutaneous growth; assay: Antitumor effect in vivo, subcutaneous tumor model; parameters: species or system nude mice; conditions: oral administration every 2 days, 10 treatments
[7] = test system: PDC No. 5 subcutaneous growth; assay: Antitumor effect in vivo, subcutaneous tumor model; parameters: species or system nude mice; conditions: oral administration every 2 days, 10 treatments
[8] = test system: PDC No. 4 subcutaneous growth; assay: Antitumor effect in vivo, subcutaneous tumor model; parameters: species or system nude mice; conditions: oral administration every 2 days, 10 treatments
[9] = test system: PDC No. 3 subcutaneous tumors; assay: Tumor-based clearance of sorafenib in subcutaneous tumors; assay type: in vivo, nude mice; conditions: PDC No. 3, Tumor-based, miR-3609; sorafenib injected into subcutaneous tumors
[10] = test system: PDC No. 1 subcutaneous growth; assay: Antitumor effect in vivo, subcutaneous tumor model; parameters: species or system nude mice; conditions: oral administration every 2 days, 10 treatments
MHCC97-H cells [11] = assay: Cell-based metabolism/clearance of sorafenib; assay type: in vitro ADME, human; conditions: LC-MS/MS, cultured HCC cells
[12] = Cell-based metabolism/clearance of sorafenib; assay type: in vitro ADME, human; conditions: human, MHCC97-H cells, Half-Life Time (t1/2, h), MHCC97-H, Cell-based, 1 μmol/L sorafenib
[13] = test system: PDC No. 3 subcutaneous growth; assay: Antitumor effect in vivo, subcutaneous tumor model; parameters: species or system nude mice; conditions: oral administration every 2 days, 10 treatments
[14] = patients with EPAS-1 mRNA expression High (n = 26)
[15] = patients with EPAS-1 mRNA expression Low (n = 26)
[16] = patients with miR-3609 expression High (n = 26)
[17] = patients with miR-3609 expression Low (n = 26)

In the case of `COc1cc2c(Oc3ccc4[nH]c(C)cc4c3F)ccnc2cc1OCC1(N)CC1` [anlotinib], the “change of IC50 on MHCC97-H cells on overexpression of miR-3609” value (from here on “change of IC50 on MHCC97-H cells”) (MHCC97-H cells [1]) is reported as “decreased”.

With `N#CC1(c2ccc(NC(=O)c3cccnc3NCc3ccncc3)cc2)CCCC1` [apatinib] the “change of IC50 on MHCC97-H cells” value (MHCC97-H cells [1]) was “decreased”.

In the case of `COc1cc2nccc(Oc3ccc(NC(=O)NC4CC4)c(Cl)c3)c2cc1C(N)=O` [lenvatinib], the “change of IC50 on MHCC97-H cells” value (MHCC97-H cells [1]) is reported as “decreased”.

With `CNC(=O)c1cc(Oc2ccc(NC(=O)Nc3ccc(Cl)c(C(F)(F)F)c3)c(F)c2)ccn1` [regorafenib] the “change of IC50 on MHCC97-H cells” value (MHCC97-H cells [1]) was “decreased”.

For `CNC(=O)c1cc(Oc2ccc(NC(=O)Nc3ccc(Cl)c(C(F)(F)F)c3)cc2)ccn1` [sorafenib], the “Half-Life Time (t1/2, h)” value [2] was 26.32 ± 6.91 h, the “IC50 values of Soarfenib on Subcutaneous Tumor Weights” value (shortened to “IC50 values of Soarfenib”) ([3]; Control) was 2.25 ± 0.44 mg/kg and the “IC50 values of Soarfenib” value ([3]; miR-3609 + EPAS-1^Mut) was 2.51 ± 0.52 mg/kg. The “IC50 values of Soarfenib” value ([3]; miR-3609) was 0.15 ± 0.02 mg/kg, the “subcutaneous growth of MHCC97-H cells” value ([3]; nude mice, oral administration) was “inhibited the subcutaneous growth of MHCC97-H cells in a dose-dependent manner” and the “OS (overall survival)” value [4, 14] was 11.0 M. The “TTP (time to progress)” value [4, 14] was 8.0 M, the “OS (overall survival)” value [4, 15] was 16.0 M and the “TTP (time to progress)” value [4, 15] was 13.0 M. For the same compound, the “OS (overall survival)” value [4, 16] was 15.0 M, the “TTP (time to progress)” value [4, 16] was 12.0 M and the “OS (overall survival)” value [4, 17] was 12.0 M. The “TTP (time to progress)” value [4, 17] was 8.0 M, the “survival of MHCC97-H cells” value (MHCC97-H cells [1]; 0.01-10 μmol/L) was “inhibited the survival of MHCC97-H cells in a dose-dependent manner” and the “change of IC50 on MHCC97-H cells” value (MHCC97-H cells [1]) was “decreased”. For the same compound, the “Half-Life Time (t1/2, h)” value [5] was 30.73 ± 6.46 h, the “IC50 values of Soarfenib” value ([6]; PDC No. 2, Control) was 1.77 ± 0.20 mg/kg and the “IC50 values of Soarfenib” value ([6]; PDC No. 2, miR-3609 + EPAS-1^Mut) was 2.20 ± 0.45 mg/kg. The “IC50 values of Soarfenib” value ([6]; PDC No. 2, miR-3609) was 0.48 ± 0.10 mg/kg, the “IC50 values of Soarfenib” value ([7]; PDC No. 5, Control) was 2.88 ± 0.39 mg/kg and the “IC50 values of Soarfenib” value ([7]; PDC No. 5, miR-3609 + EPAS-1^Mut) was 2.32 ± 0.69 mg/kg. For the same compound, the “IC50 values of Soarfenib” value ([7]; PDC No. 5, miR-3609) was 0.66 ± 0.21 mg/kg, the “IC50 values of Soarfenib” value ([8]; PDC No. 4, Control) was 2.70 ± 0.70 mg/kg and the “IC50 values of Soarfenib” value ([8]; PDC No. 4, miR-3609 + EPAS-1^Mut) was 2.76 ± 0.62 mg/kg. For the same compound, the “IC50 values of Soarfenib” value ([8]; PDC No. 4, miR-3609) was 0.95 ± 0.60 mg/kg, the “Half-Life Time (t1/2, h)” value [9] was 50.73 ± 4.02 h and the “IC50 values of Soarfenib” value ([10]; PDC No. 1, Control) was ~3 mg/kg. For the same compound, the “IC50 values of Soarfenib” value ([10]; PDC No. 1, miR-3609 + EPAS-1^Mut) was >3 mg/kg, the “IC50 values of Soarfenib” value ([10]; PDC No. 1, miR-3609) was 0.87 ± 0.39 mg/kg and the “metabolism and clearance in HCC cells” value (MHCC97-H cells [11]) was “gradually metabolized and cleared”. For the same compound, the half-life at 1 μmol/L ([12]; Control) was 18.6 ± 2.46 h, the half-life at 1 μmol/L ([12]; miR-3609 + EPAS-1^Mut) was 18 ± 3.18 h and the half-life at 1 μmol/L ([12]; miR-3609) was 37.1 ± 6.12 h. For the same compound, the “IC50 values of Soarfenib” value ([13]; PDC No. 3, Control) was 1.99 ± 0.54 mg/kg, the “IC50 values of Soarfenib” value ([13]; PDC No. 3, miR-3609 + EPAS-1^Mut) was 1.81 ± 0.41 mg/kg and the “IC50 values of Soarfenib” value ([13]; PDC No. 3, miR-3609) was 0.30 ± 0.04 mg/kg.
